Measured values: patent US7872005B2, “2-substituted heteroaryl compounds” (Synta Pharmaceuticals Corporation, priority 2004, dated 2011)

Key:
[1] = system: colitis in C.B-17 SCID mice; test: CD4+ CD45Rb high T cell-reconstituted SCID colitis model mice; type: in vivo, mouse
Experimental: Treatment of Crohn's disease in CD4^+ CD45Rb^high T cell-reconstituted SCID colitis model mice: Spleen cells were prepared from normal female BALB/c mice. For cell purification, the following anti-mouse antibodies were used to label non-CD4^+ T cells: B220 (RA3-6B2), CD11b (M1/70), and CD8α (53-6.72). All antibodies were obtained from BioSource (Camarillo, Calif.). M450 anti-rat IgG-coated magnetic beads (Dynal, Oslo, Norway) were used to bind the antibodies and negative selection was accomplished using an MPC-1 magnetic concentrator. The enriched CD4^+ cells were then labeled for cell sorting with FITC-conjugated CD45RB (16A, Pharmingen, San Diego, Calif.) and PE-conjugated CD4 (CT-CD4, Caltag, Burlingame, Calif.). CD4^+ CD45RB^high cells were operationally defined as the upper 40% of CD45Rb-staining CD4^+ cells and sorted under sterile conditions by flow cytometry. Harvested cells were resuspended at 4×10^6/mL in PBS and injected 100 μL intraperitoneally into female C.B-17 SCID mice. Pyrimidine compounds of this invention (e.g., Compound 12) and/or vehicle was orally administered once a day, 5 days per week, starting the day following the transfer. The transplanted SCID mice were weighed weekly and their clinical condition was monitored.
Colon tissue samples were fixed in 10% buffered formalin and embedded in paraffin. Sections (4 μm) collected from ascending, transverse, and descending colon were cut and stained with hematoxylin and eosin. The severity of colitis was determined based on histological examination of the distal colon sections, whereby the extent of colonic inflammation was graded on a scale of 0-3 in each of four criteria: crypt elongation, cell infiltration, depletion of goblet cells, and the number of crypt abscesses.
LP lymphocytes were isolated from freshly obtained colonic specimens. After removal of payer's patches, the colon was washed in Ca/Mg-free HBSS, cut into 0.5 cm pieces and incubated twice in HBSS containing EDTA (0.75 mM), DTT (1 mM), and antibiotics (amphotericin 2.5 μg/mL, gentamicin 50 μg/mL from Sigma) at 37° C. for 15 min. Next, the tissue was digested further in RPMI containing 0.5 mg/mL collagenase D, 0.01 mg/mL DNase I (Boehringer Manheim), and antibiotics at 37° C. LP cells were then layered on a 40-100% Percoll gradient (Pharmacia, Uppsala, Sweden), and lymphocyte-enriched populations were isolated from the cells at the 40-100% interface.
To measure cytokine production, 48-well plates were coated with 10 μg/mL murine anti-CD3ε antibody (145-2C11) in carbonate buffer (PH 9.6) overnight at 4° C. […] Murine IFNγ was measured using an ELISA kit from Endogen (Cambridge, Mass.), according to the manufacturer's instructions.

[2] = system: adjuvant arthritis (AA) in female Lewis rats; test: Treatment of adjuvant arthritis in rats; type: in vivo, rat; details: oral, once a day for 12 days; dose-dependent
Experimental: A heterocyclic compound can also be evaluated by animal studies. For example, one of such studies involves the ability of a test compound to treat adjuvant arthritis (i.e., a IL-12 overproduction related disorder) in rats.
Treatment of adjuvant arthritis in rats: Adjuvant arthritis (AA) was induced in female Lewis rats by the intracutaneous injection (base of the tail) of 0.1 mL of a 10 mg/mL bacterial suspension made from ground, heat-killed Mycobacterium tuberculosis H37Ra suspended in incomplete Freund's adjuvant. Rats were given a test compound orally once a day for 12 days, starting the day following the induction. The development of polyarthritis was monitored daily by macroscopic inspection and assignment of an arthritis index to each animal, during the critical period (days 10 to 25 post-immunization).
The intensity of polyarthritis was scored according to the following scheme: (a) Grade each paw from 0 to 3 based on erythema, swelling, and deformity of the joints: 0 for no erythema or swelling; 0.5 if swelling is detectable in at least one joint; 1 for mild swelling and erythema; 2 for swelling and erythema of both tarsus and carpus; and 3 for ankylosis and bony deformity. Maximum score for all 4 paws was thus 12. […]

[3] = system: DNBS-induced distal colitis in Wistar derived rats; test: Dinitrobenzene sulfonic acid-induced inflammatory bowel syndrome model rats (distal colitis); type: in vivo, rat; details: oral, 24 and 2 hours before DNBS, then daily for 5 days; relative to net increase of vehicle+DNBS group
Experimental: Treatment of Crohn's disease in dinitrobenzene sulfonic acid-induced inflammatory bowel syndrome model rats: Wistar derived male or female rats weighing 200±20 g and fasted for 24 hours were used. Distal colitis was induced by intra-colonic instillation of 2,4-dinitrobenzene sulfonic acid (DNBS, 25 mg in 0.5 mL ethanol 30%) after which air (2 mL) was gently injected through the cannula to ensure that the solution remained in the colon. A test compound and/or vehicle was administered orally 24 and 2 hours before DNBS instillation and then daily for 5 days. One control group was similarly treated with vehicle alone while the other is treated with vehicle plus DNBS. The animals were sacrificed 24 hours after the final dose of test compound administration and each colon was removed and weighed. Colon-to-body weight ratio was then calculated for each animal according to the formula: Colon (g)/BW×100. The “Net” increase in ratio of Vehicle-control+DNBS group relative to Vehicle-control group was used as a base for comparison with test substance treated groups and expressed as “% Deduction.” Pyrimidine compounds of this invention (e.g., Compound 12) reproducibly had about 30% deduction. A 30% or more reduction in colon-to-body weight ratio, relative to the vehicle treated control group, was considered significant.

Cc1cccc(/C=N/Nc2cc(N3CCOCC3)nc(CCOC(=O)Nc3cccc(C(F)(F)F)c3)n2)c1 [Compound 12, (3-Trifluoromethyl-phenyl)-carbamic acid 2-{4-[N′-(3-methyl-benzylidene)-hydrazino]-6-morpholin-4-yl-pyrimidin-2-yl}-ethyl ester]
IFNγ production by LP cells in response to anti-CD3 and anti-CD28 antibody ([1]; LP cells from treated mice, ex vivo, 48 h culture): greatly diminished the production | colonic inflammation (histological analysis) ([1]; oral, once a day, 5 days per week, compared to vehicle control): reduced colonic inflammation | colon-to-body weight ratio ([1]; oral, consistent with histological score): attenuation | suppressive effect on colonic inflammation at 10 mg/kg ([1]; oral, dose of 10 mg/kg): substantial reduction | arthritic score [2]: reduced the arthritic score | development of polyarthritis [2]: delayed the development of polyarthritis | % Deduction (colon-to-body weight ratio) [3]: about 30%
